One test has as its target T1, SHIP2 (Homo sapiens, UniProt O15357).
T1 sequence (O15357 1-1258): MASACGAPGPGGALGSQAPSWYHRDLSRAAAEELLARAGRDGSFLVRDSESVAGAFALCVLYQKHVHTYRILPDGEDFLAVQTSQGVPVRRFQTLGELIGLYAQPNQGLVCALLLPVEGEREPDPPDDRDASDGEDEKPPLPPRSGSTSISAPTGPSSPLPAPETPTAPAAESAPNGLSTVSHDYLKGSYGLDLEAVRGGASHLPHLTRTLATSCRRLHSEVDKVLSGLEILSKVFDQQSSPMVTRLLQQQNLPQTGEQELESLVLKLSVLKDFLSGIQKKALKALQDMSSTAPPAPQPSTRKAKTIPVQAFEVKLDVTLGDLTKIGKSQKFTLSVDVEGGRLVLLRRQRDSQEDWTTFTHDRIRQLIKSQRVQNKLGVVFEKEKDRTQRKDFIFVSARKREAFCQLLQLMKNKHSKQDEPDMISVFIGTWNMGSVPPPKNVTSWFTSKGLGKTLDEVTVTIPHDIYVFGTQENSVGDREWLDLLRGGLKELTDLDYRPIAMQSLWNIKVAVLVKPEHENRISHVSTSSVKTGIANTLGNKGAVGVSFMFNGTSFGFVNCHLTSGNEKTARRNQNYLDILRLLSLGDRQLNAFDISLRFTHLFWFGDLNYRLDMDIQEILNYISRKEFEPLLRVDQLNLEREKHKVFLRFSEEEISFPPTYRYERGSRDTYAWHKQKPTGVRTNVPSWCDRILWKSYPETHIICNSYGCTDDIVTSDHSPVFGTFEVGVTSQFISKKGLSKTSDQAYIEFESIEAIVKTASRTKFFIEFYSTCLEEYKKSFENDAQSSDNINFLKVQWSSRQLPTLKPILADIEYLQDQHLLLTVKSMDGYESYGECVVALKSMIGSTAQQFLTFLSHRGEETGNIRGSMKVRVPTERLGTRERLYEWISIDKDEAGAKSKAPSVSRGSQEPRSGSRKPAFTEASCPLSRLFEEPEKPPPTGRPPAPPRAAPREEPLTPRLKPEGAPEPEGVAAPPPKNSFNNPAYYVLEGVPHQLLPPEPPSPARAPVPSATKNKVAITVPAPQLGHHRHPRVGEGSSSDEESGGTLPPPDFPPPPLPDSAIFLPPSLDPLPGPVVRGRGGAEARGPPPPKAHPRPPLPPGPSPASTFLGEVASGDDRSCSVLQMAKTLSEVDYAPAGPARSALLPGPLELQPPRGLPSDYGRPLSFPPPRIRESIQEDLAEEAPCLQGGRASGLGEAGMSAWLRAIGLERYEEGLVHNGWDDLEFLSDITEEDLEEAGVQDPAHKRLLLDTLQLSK
Nature of the test: Malachite Green phosphate release assay, SHIP2. It counts as biochemical. The settings on record: at 1 mM.

In another test the test system is NK1.1+CD3- NK cells. Nature of the test: NK cell compartment in spleens of treated mice. The settings on record: mice treated daily for 6 days, spleen on day 7. The class given is in vivo, mouse. Here is the method:
Mice were treated daily for 6 days with either NSC13480, vehicle alone (Vehicle) or were non-manipulated (Normal). On the 7th day the spleens of the mice were analyzed for NK cell content (NK1.1+CD3− cells) and for expression of the MHC-I inhibitory receptor Ly49G2.
SHIP-deficiency expands the peripheral NK compartment and disrupts the repertoire of receptors elaborated by NK cells that recognize MHC-I ligands. The NK cell compartment was examined in NSC13480-treated mice to determine if inhibition of SHIP enzymatic activity in vivo could also lead to similar disruptions in the NK cell compartment. […] Ly49G2 is an MHC-I inhibitory receptor shown to be under-represented in SHIP^−/− mice.
Antibody staining and flow cytometry (Examples 1-6): Anti-CD16/32 was co-incubated with the samples to block Fc receptor binding. Antibodies used for staining included: NK1.1 (PK136); CD3e (145-2C11); Ly49G2 (4D11); Gr-1 (RB6-8C5); Mac-1(M1/70); CD11c (HL3); CD4 (GK1.5); CD25 (PC61) and were obtained from BD Pharmingen (San Jose, Calif.). FoxP3 (FJK-16s) was purchased from eBioScience (San Diego, Calif.). All samples were acquired on a FACSCalibur and analyzed using FlowJo8.7.1. For viable staining, dead cells were excluded from the analysis following cytometer acquisition of data by exclusion of the 7AAD dye. […]

As to `CC(C)CCC[C@@H](C)[C@H]1CC[C@H]2[C@@H]3CC[C@H]4C[C@H](N)CC[C@]4(C)[C@H]3CC[C@]12C` [NSC23922, (3R,5S,8R,9S,10S,13R,14S,17R)-10,13-dimethyl-17-[(2R)-6-methylheptan-2-yl]-2,3,4,5,6,7,8,9,11,12,14,15,16,17-tetradecahydro-1H-cyclopenta[a]phenanthren-3-amine], the “inhibition of SHIP2 activity” value at SHIP2 is recorded as “fails to inhibit”. `OC(c1cc(-c2ccccc2)nc2c1ccc1ccccc12)C1CCCCN1` (stereo not drawn) [NSC13480, (2-phenylbenzo[h]quinolin-4-yl)-piperidin-2-ylmethanol]: in the test with NK1.1+CD3- NK cells, the “frequency of Ly49G2+ NK cells” value is recorded as “much reduced frequency” and the “splenic NK cell numbers” value is listed as “significant increase”.

Source of the values: patent US9006221B2, “Method of modulating ship activity” (H. Lee Moffitt Cancer Center and Reserach Institute, Inc., priority 2008, dated 2015).
